In patent publication US20040167199A1, “Methods of using and compositions comprising (-)-3-(3,4-dimethoxy-phenyl)-3-(1-oxo-1,3-dihydro-isoindol-2-yl)-propionamide” (Celgene Corporation, priority 2002, published 2004):

Experiments:
[1] = test system: LPS-induced TNF-α production from human PBMC; assay: LPS-induced TNF-α production from human PBMC; assay type: cell-based; details: LPS 100 ng/ml, 18-20 hours, ELISA
Procedure: Lipopolysaccharide (LPS) is an endotoxin produced by gram-negative bacteria such as E. coli which induces production of many pro-inflammatory cytokines, including TNF-α In peripheral blood mononuclear cells (PBMC), the TNF-α produced in response to LPS is derived from monocytes, which comprise approximately 5-20% of the total PBMC. Compounds were tested for the ability to inhibit LPS-induced TNF-α production from human PBMC as previously described (Muller et al. 1996, J. Med Chem. 39:3238). PBMC from normal donors were obtained by Ficoll Hypaque (Pharmacia, Piscataway, N.J., USA) density centrifugation. Cells were cultured in RPMI (Life Technologies, Grand Island, N.Y., USA) supplemented with 10% AB± human serum (Gemini Bio-products, Woodland, Calif., USA), 2 mM L-glutamine, 100 U/ml penicillin, and 100 μg/ml streptomycin (Life Technologies).
PBMC (2×10^5 cells) were plated in 96-well flat-bottom Costar tissue culture plates (Coming, N.Y., USA) in triplicate. Cells were stimulated with LPS (Sigma, St. Louis, Mo., USA) at 100 ng/ml in the absence or presence of compounds. Compounds (Celgene Corp., Warren, N.J., USA) were dissolved in DMSO (Sigma) and further dilutions were done in culture medium immediately before use. The final DMSO concentration in all samples was 0.25%. Compounds were added to cells 1 hour before LPS stimulation. […]

[2] = test system: IL-1β-induced TNF-α production from human PBMC; assay: IL-1β-induced TNF-α production from human PBMC; assay type: cell-based; details: recombinant human IL-1β 50 ng/ml, 18 hours
Procedure: During the course of inflammatory diseases, TNF-α production is often stimulated by the cytokine IL-1β, rather than by bacterially derived LPS. Compounds are tested for the ability to inhibit EL-1β-induced TNF-α production from human PBMC as described above for LPS-induced TNF-α production, except that the PBMC are isolated from source leukocyte units (Sera-Tec Biologicals, North Brunswick, N.J., USA) by centrifugation on Ficoll-Paque Plus (Amersham Pharmacia, Piscataway, N.J., USA), plated in 96-well tissue culture plates at 3×10^5 cells/well in RPMI-1640 medium (BioWhittaker, Walkersville, Md., USA) containing 10% heat-inactivated fetal bovine serum (Hyclone), 2 mM L-glutamine, 100 U/ml penicillin, and […] (complete medium), pretreated with compounds at 10, 2, 0.4, 0.08, 0.016, 0.0032, 0.00064, and 0 μM in duplicate at a final DMSO concentration of 0.1% at 37° C. in a humidified incubator at 5% CO2 for 1 hour, then stimulated with 50 ng/ml recombinant human IL-1β (Endogen) for 18 hours.

[3] = test system: PDE4 enzyme purified from U937 human monocytic cells; assay: PDE4 inhibition (enzyme purified from U937 cells); assay type: biochemical; details: 1 μM cAMP, 30 min at 30° C.
Procedure: PDE4 enzyme was purified from U937 human monocytic cells by gel filtration chromatography as previously described (Muller et al. 1998, Bioorg. & Med Chem Lett 8:2669-2674). Phosphodiesterase reactions were carried out in 50 mM Tris HCl pH 7.5, 5 mM MgCl2, 1 μM cAMP, 10 nM [^311)-cAMP for 30 min at 30° C., terminated by boiling, treated with 1 mg/ml snake venom, and separated using AG-IXS ion exchange resin (BioRad) as described (Muller et al. 1998, Bioorg. & Med Chem Lett 8:2669-2674). Reactions consumed less than 15% of available substrate.

[4] = test system: bovine PDE1; assay: PDE selectivity, single concentration, PDE1; assay type: biochemical; details: for PDE Specificity Ratio PDE1/PDE4: from above data
Procedure: (§1) The specificity of compounds for specific PDE's was assessed by testing at a single concentration (100 μM) against bovine PDE1, human PDE2, PDE3, and PDE5 from human platelets (Hidaka and Asano 1976, Biochem. Biophys. Acta 429:485, and Nicholsen et al. 1991, Trends Pharmaco. Sci. 12:19).

[5] = target: human PDE2 (Homo sapiens, UniProt O00408); assay: PDE selectivity, single concentration, PDE2; assay type: biochemical
Sequence of human PDE2 (O00408 whole entry): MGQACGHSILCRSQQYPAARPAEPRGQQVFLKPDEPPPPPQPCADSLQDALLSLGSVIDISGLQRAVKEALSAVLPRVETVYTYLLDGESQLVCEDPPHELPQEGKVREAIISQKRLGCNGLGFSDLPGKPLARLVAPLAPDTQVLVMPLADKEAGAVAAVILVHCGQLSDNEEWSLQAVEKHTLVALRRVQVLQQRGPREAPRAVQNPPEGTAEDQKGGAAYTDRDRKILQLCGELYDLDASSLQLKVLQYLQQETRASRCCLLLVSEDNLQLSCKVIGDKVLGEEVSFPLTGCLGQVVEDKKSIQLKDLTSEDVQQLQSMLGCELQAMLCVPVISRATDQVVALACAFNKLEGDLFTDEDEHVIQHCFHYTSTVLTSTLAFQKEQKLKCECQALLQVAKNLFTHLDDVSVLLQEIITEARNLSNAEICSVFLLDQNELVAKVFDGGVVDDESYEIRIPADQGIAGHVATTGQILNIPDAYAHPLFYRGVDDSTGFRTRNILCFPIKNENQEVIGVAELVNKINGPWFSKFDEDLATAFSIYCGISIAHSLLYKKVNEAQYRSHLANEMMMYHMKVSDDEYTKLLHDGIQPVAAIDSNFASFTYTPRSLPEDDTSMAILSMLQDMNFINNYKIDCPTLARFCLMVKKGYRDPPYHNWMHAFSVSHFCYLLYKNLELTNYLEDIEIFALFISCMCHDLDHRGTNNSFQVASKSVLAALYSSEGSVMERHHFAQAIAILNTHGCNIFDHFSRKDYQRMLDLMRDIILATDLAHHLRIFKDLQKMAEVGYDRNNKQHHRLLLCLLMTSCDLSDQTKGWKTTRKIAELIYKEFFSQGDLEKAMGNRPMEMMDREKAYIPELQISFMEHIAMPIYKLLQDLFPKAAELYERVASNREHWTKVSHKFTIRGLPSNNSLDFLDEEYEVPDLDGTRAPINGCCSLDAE
Procedure: as §1

[6] = test system: PDE3 from human platelets; assay: PDE selectivity, single concentration, PDE3; assay type: biochemical; details: for PDE Specificity Ratio PDE3/PDE4: from above data
Procedure: as §1

[7] = target: T1, PDE5 from human platelets (Homo sapiens, UniProt O76074); assay: PDE selectivity, single concentration, PDE5; assay type: biochemical; details: for PDE Specificity Ratio PDE5/PDE4: from above data; for inhibition at 100 µM: read-out: PDE5 (% inhib at 100 μM)
T1 construct: PDE3, and PDE5 from human platelets; from tissue; host or cells: human platelets
Procedure: as §1

[8] = Pharmacokinetics after oral administration in female rats; details: rat, in vivo, 80 mg/kg oral in aqueous CMC
Description: Table III presents plasma concentration data (ng/mL) taken at 0.5 hr., 1 hr., 2 hrs., 4 hrs., 7 hrs., 10 hrs. and 24 hrs. following the administration, Cmax, Tmax and AUC.

Structure (SMILES)	IC50 [1]	IC50 [2]	IC50 [3]	PDE1 (% inhib at 100 μM) [4]	PDE Specificity Ratio PDE1/PDE4 [4]	PDE3 (% inhib at 100 μM) [6]	PDE Specificity Ratio PDE3/PDE4 [6]	PDE Specificity Ratio PDE5/PDE4 [7]	inhibition at 100 µM [7]	other results
COc1ccc(C(CC(N)=O)N2Cc3ccccc3C2=O)cc1OC (single isomer, unassigned; (+)) [Compound B, (+)-3-(3,4-dimethoxy-phenyl)-3-(1-oxo-1,3-dihydro-isoindol-2-yl)-propionamide]	100 µM	86 µM	67 µM	47%	˜1 fold	50%	˜1 fold	>1 fold	5%	PDE Specificity Ratio PDE2/PDE4 ([5]; from above data): >1 fold; inhibition at 100 µM ([5]; read-out: PDE2 (% inhib at 100 μM)): 22%
COc1ccc(C(CC(N)=O)N2Cc3ccccc3C2=O)cc1OC (racemic) [Racemic Compound, 3-(3,4-dimethoxy-phenyl)-3-(1-oxo-1,3-dihydro-isoindol-2-yl)-propionamide]	21 µM	16 µM	15 µM	20%	>4.8 fold	51%	˜4.8 fold	>4.8 fold	14%	concentration at 0 h ([8]; 0 hour, read-out: plasma concentration): 0 ng/mL; AUC [8]: 44200 ng·h/mL; Cmax [8]: 4910 ng/mL; Tmax [8]: 2 h; concentration at 0.5 h ([8]; 0.5 hour, read-out: plasma concentration): 3900 ng/mL; concentration at 1 h ([8]; 1 hour, read-out: plasma concentration): 4600 ng/mL; concentration at 2 h ([8]; 2 hours, read-out: plasma concentration): 4120 ng/mL; concentration at 4 h ([8]; 4 hours, read-out: plasma concentration): 2980 ng/mL; concentration at 7 h ([8]; 7 hours, read-out: plasma concentration): 2520 ng/mL; concentration at 10 h ([8]; 10 hours, read-out: plasma concentration): 2060 ng/mL; concentration at 24 h ([8]; 24 hours, read-out: plasma concentration): 9.2 ng/mL
